Assay results reported in patent US20100158850A1, “DENDRIMER BASED MODULAR PLATFORMS” (The Regents of the University of Michigan, priority 2008, published 2010).

Experiments:
folic acid receptor = target: T1, folic acid receptor (Homo sapiens, UniProt P15328); assay: Blocking of folate receptors: uptake of targeted platform 15 in KB cells with 20-fold excess blocking agent; assay type: cell-based; settings: for Blocking of uptake of targeted platform 15 (FIG. 5d, 5e): 20 fold excess of blocking agent (for 13 with respect to folic acid content)
T1 construct: performed using FA-receptor-expressing KB cells (ATCC #CCL-17); host or cells: KB cells
Procedure: (§1) The uptake of the synthesized conjugates was performed using FA-receptor-expressing KB cells (ATCC #CCL-17) as previously described (see, e.g., Thomas et al, J. Med. Chem., 48, 3729-3735, 2005; herein incorporated by reference in its entirety). Cells were maintained in FA-free Roswell Park Memorial Institute-1640 (RPMI 1640) medium supplemented with 10% Fetal Bovine serum (FBS), […] L-glutamine, 100 U/ml penicillin and 100 μg/ml streptomycin in 5% CO2 at 37° C. Cells were planted into 24 wells plate at density 250,000 per well and allowed to reach ˜90% confluent on the day of the experiment. They were rinsed and incubated in serum free medium with conjugates for 1 hour at 37° C. in 5% CO2. In some wells, a 20-fold excess of free folic acid or the folic acid conjugated dendrimer was added 30 minutes prior to the addition of the dendrimer platform for the blocking of folate receptors.
(§2) The cellular fluorescence was quantified on a Beckman-Coulter EPICS-XL MCL flow cytometer, and the data were analyzed using Expo32 software (Beckman-Coulter, Miami, Fla.). Cells were trypsinized, rinsed and suspended in PBS containing 0.1% bovine serum albumin (PBSB). The viable cells were gated, and the mean FL1-fluorescence of 10,000 cells was quantified. Error bars are calculated using the half-peak coefficient of variation (HPCV) (see, e.g., Marie, D.; et al., Biol. Cell 1993, 78, 41-51; herein incorporated by reference in its entirety).
The final set of controls investigated active blocking of the folic acid receptor by either free folic acid (FIGS. 5d and 5f-green) or a folic acid-dendrimer conjugate without a fluorescent dye (13) (FIGS. 5e and 5f-orange) to prevent the specific up-take of the folic acid targeted dendrimer systema A 20 fold excess of blocking agent was employed relative to the targeted platform. For the blocking experiment using the single dendrimer-folic acid conjugate (13), molar equivalence was based on the folic acid content of the sample rather than the dendrimer content. Both blocking agents were evaluated at 30 nM, 100 nM, 300 nM, and 1000 nM. […] While the dendrimer-folic acid conjugate is not as effective at blocking as the free folic acid, approximately 75% blocking is achieved.

[1] = tested on: FA-receptor-expressing KB cells; assay: Cellular uptake of dendrimer conjugates in KB cells measured by flow cytometry; assay type: cell-based, human
Procedure: as §1, §2
Cellular uptake of the folic acid targeted dendrimer system (15) at four different concentrations (30 nM, 100 nM, 300 nM, and 1000 nM of 15) was measured in KB cells that express a high cellular membrane concentration of folic acid receptor (FAR). Fluorescence uptake was quantified by Flow Cytometry.
A series of control experiments were performed in order to ensure that uptake of the folic acid targeted dendrimer system (15) was occurring via receptor-mediated endocytosis and not non-specific membrane interactions. […] The second control sample contained a non-conjugated (un-clicked) mixture of the two dendrimers functionalized with either FITC or folic acid (13 and 14). Uptake of this mixture was quantified at 30 nM, 100 nM, and 300 nM (FIGS. 5c and 5f-teal). […] This control eliminates the possibility that the dendrimer modules could form a non-covalently linked complex that would be internalized. A third control sample (18) was composed of an un-targeted dendrimer module (17) coupled to the FITC conjugated imaging module (14). The un-targeted dual module platform (18) was assembled under the same conditions used to form the folic acid targeted platform (15). […] This un-targeted dendrimer platform control matches the molecular weight and size of the folic acid targeted dendrimer system (15).

T1 sequence (P15328 25-234): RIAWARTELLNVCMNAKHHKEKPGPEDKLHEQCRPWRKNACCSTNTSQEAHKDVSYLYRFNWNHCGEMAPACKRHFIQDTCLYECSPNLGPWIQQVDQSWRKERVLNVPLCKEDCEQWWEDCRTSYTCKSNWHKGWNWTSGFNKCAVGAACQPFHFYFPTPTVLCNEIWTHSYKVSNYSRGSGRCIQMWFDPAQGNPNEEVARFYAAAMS

In the case of `Nc1nc2ncc(CNc3ccc(C(=O)N[C@@H](CCC(=O)O)C(=O)O)cc3)nc2c(=O)[nH]1` [free folic acid, folic acid, reference compound], the “Blocking of uptake of targeted platform 15 (FIG. 5d, 5e)” value (folic acid receptor) is reported as “successfully blocked” and the “Blocking of uptake of targeted platform 15” value (folic acid receptor; 20 fold excess, added 30 minutes before, concentrations up to 100 nM) is reported as “Complete blocking”.
In the case of “FA3.5-G5-Ac107-L-G5-Ac106-FITC3.2 [Compound 15]”, the “Cellular uptake (fluorescence, flow cytometry)” value ([1]; KB cells, 1 hour at 37° C., 30 nM, 100 nM, 300 nM and 1000 nM) is reported as “dose dependent uptake”, the “Concentration at which uptake saturates” value ([1]; KB cells, 1 hour at 37° C., tested at 30-1000 nM) is reported as 100 nM and the “Specific targeting of folic acid receptor in vitro” value ([1]; human epithelial cancer cell line (KB)) is reported as “found to specifically target the over-expressed folic acid receptor”.
For G5-Ac106-Azide2.5-FITC3.2 [Compound 14], the “Cellular uptake (FIG. 5b)” value ([1]; KB cells, 30 nM, 100 nM and 300 nM) was “not observed”, the “Cellular uptake above the background level” value ([1]; KB cells, 30 nM, 100 nM, 300 nM and 1000 nM) was “No uptake was observed” and the “Cellular uptake (FIG. 5b)” value ([1]; KB cells, 1000 nM) was “Very minimal uptake”.
For G5-Ac107-Alkyne1.6-FA3.5 [Compound 13], the “Blocking of uptake of targeted platform 15” value (folic acid receptor; 20 fold excess based on folic acid content, evaluated at 30-1000 nM) was “approximately 75%” and the “Blocking of uptake of targeted platform 15 (FIG. 5d, 5e)” value (folic acid receptor) was “successfully blocked”.
With “G5-Ac110.7-L-G5-Ac106-FITC3.2 [Compound 18]” the “Mean fluorescence uptake beyond the background level” value ([1]; KB cells, concentrations up to 300 nM) was “no uptake was observed beyond the background level”.
